# Results: patent US10759786B2, “1-tetrahydropyranylcarbonyl-2,3-dihydro-1H-indole compounds for treating cancer” (Eli Lilly and Company, priority 2016, dated 2020)
# Experiments:
# Colon26 tumors = assay: Mouse Syngeneic Colon26 Model; type: in vivo; settings: for changes in tumor volume (% T/C) / reduction in body weight compared to baseline: day 20
# Procedure: Grow the mouse BALB/c-derived Colon26 colon cancer cell line in RPMI 1640 medium supplemented with 10 mM HEPES, […] sodium pyruvate, and 10% fetal bovine serum. Harvest sub-confluent cells with trypsin and rinse twice with complete growth medium lacking serum. Initiate subcutaneous tumors by injecting 1×10^6 cells resuspended in HBSS in the rear flank of immune-competent BALB/c mice (Envigo, Indianapolis, Ind.). Six days after tumor implantation, randomize animals based on body weight and place into their respective treatment groups using the number of animals per group as indicated.
# (§1) Capture tumor size and body weight using Study Director. Estimate tumor volume (V) by using the formula: V=0.536×L×W^2 where L=larger measured diameter and W=smaller of the perpendicular diameter. Transform the tumor volume data to a log scale to equalize variance across time and treatment groups. Analyze the log volume data with a two-way repeated measures analysis of variance by time and treatment using the MIXED procedures in SAS software (Version 9.2). The correlation model for the repeated measures is Spatial Power. Compare treated groups to the control group at each time point. Use the MIXED procedure also separately for each treatment group to calculate adjusted means and standard errors at each time point. Both analyses account for the autocorrelation within each animal and for the loss of data that occurs when animals with large tumors are removed from the study early. Calculate relative changes in tumor volume (% T/C) using the tumor volume measurements taken nearest to the last day of dosing with Example 1A, using the formula % T/C=100×ΔT/ΔC, where T=mean tumor volume of the compound treated group, ΔT=mean tumor volume of the compound treated group minus the mean tumor volume on the baseline day, C=mean tumor volume of the control (vehicle) group, and ΔC=mean tumor volume of the control group minus the mean tumor volume on the baseline day. If ΔT<0, then a tumor regression value is calculated instead of % T/C whereby % Regression=100×ΔT/Tinitial such that Tinital=mean tumor volume on the baseline day.
# (§2) Assess antitumor efficacy of Example 1A and LY3300054 alone, or in combination by measuring tumor volume by three dimensional caliper measurements twice a week during the course of the study. Measure body weight twice weekly during the course of the study, as a general indicator of tolerability.
# (§3) Formulations for Example 1A and LY3300054: Formulate Example 1A on a weekly basis in 1% HEC/0.25% Tween 80/0.05% Antifoam and store at 4° C. Solublize LY3300054 in phosphate buffered saline and store at 4° C.
# Treat female BALB/c mice (n=10) bearing Colon26 tumors with Example 1A twice daily for 21 days by oral gavage at doses of 10, 50, and 100 mg/kg. Start administration of Example 1A six days after tumor implantation, and monitor tumor growth and body weight twice a week for the duration of the treatment period.
# IDO1 = target: T1, IDO1 (Homo sapiens, UniProt P14902); assay: In Vivo Target Inhibition Assay (SKOV3X tumors); settings: mouse, 12 hours after dosing, SKOV3X tumor-bearing mice, read-out: inhibition of kynurenine in tumor
# T1 construct: an ovarian cancer cell line that intrinsically expresses IDO1; endogenous in cells; host or cells: SKOV3 (ATCC HTB-77) in culture; SKOV3X (Indiana University Research and Technology Center) as intraperitoneal tumors in athymic nude mice
# From the text: The purpose of this assay is to evaluate the inhibition of kynurenine production and tryptophan depletion in cancer cells in vivo. SKOV3X (Indiana University Research and Technology Center), an ovarian cancer cell line, intrinsically expresses IDO1 and readily forms tumors in the peritoneal cavity of Athymic Nude-Foxn1^nu mice (Harlan). As a consequence of IDO1 expression, SKOV3X tumors locally deplete tryptophan with the concomitant production of high levels of kynurenine in the tumor microenvironment. The purpose of this assay is to measure the ability of test compounds to inhibit IDO1 evidenced by the clear reduction in kynurenine levels in the tumor.
# Culture SKOV3X in McCoys 5A media (Gibco, Cat #16600-082) supplemented with non-essential amino acids (Gibco, Cat #11140-050), 1 mM sodium pyruvate (Gibco, Cat #1360-070) and 10% FBS and incubate at 37° C. in 5% CO2. Trypsinize and isolate cells from culture and resuspend cells in Hank's balanced salt solution (HBSS). Implant 2×10^6 SKOV3X cells into the intraperitoneal cavity of each Athymic Nude-Foxn1^nu mouse (Harlan). Approximately three weeks post-implantation, palpate animals to ensure tumor formation and randomize tumor-bearing mice into vehicle control and compound treatment groups. Administer compound formulated in vehicle containing 1% hydroxyethylcellulose (HEC) and 0.025% TWEEN® 80 and 0.05% Antifoam or vehicle alone by oral gavage. Generate time-course inhibition profile by dosing tumor-bearing animals with a single dose and collect plasma, liver, and tumor samples at 2, 4, 8, 12, and 24 hours post dose. Collect blood into EDTA-containing blood collection tubes (Greiner bio-one, Cat #450474) and centrifuge at 2365×g, isolate plasma, and freeze at −80° C. Isolate liver and tumor fragments, record weights and flash freeze and store at −80° C.
# Prepare calibration standards for L-kynurenine and L-tryptophan by first generating stripped matrices, which are plasma and tissue homogenates depleted of L-kynurenine and L-tryptophan by dialysis. […]
# L55 tumors = assay: L55 Humanized Tumor Model with hPBMC challenge; type: in vivo; settings: for tolerability (body weight): with or without hPBMCs, over the course of the study
# From the text: Grow the human NSCLC cell line, L55, in RPMI 1640 medium supplemented with 10% fetal bovine serum. Harvest sub-confluent cells with trypsin and rinse twice with growth medium lacking serum. Initiate the growth of subcutaneous tumors by injecting 5×10^6 in a 1:1 mixture of HBSS and MATRIGEL® (BD Biosciences, Franklin Lakes, N.J.) in the rear flank of NOD.Cg-Prkdc^scidIl2rg^tm1Wjl/SzJ mice more commonly known as NOD scid gamma chain knockout mice (NSG) mice (The Jackson Laboratory, Bar Harbour, Me.), which lack T cells, B cells, NK cells, and are deficient in cytokine signaling. When the mean tumor volume reaches approximately 200-300 mm^3, randomize the animals by tumor size and body weight and place into their respective treatment groups as indicated. After randomization, challenge tumor-bearing mice with PBS alone (no PBMCs) or with PBS containing 1×10^7 human PBMCs into the tail vein of recipients.
# as §1, §2, §3
# The L55 NCLC human cancer cell line is intrinsically resistant to the allo-response associated with the injection of hPBMCs. The goal of these studies is to assess the ability of compounds to potentiate the allo response allowing human T cells to target and restrict the growth of a human L55 tumors in a mouse that lacks an adaptive immune system (NSG mice). […]
# SKOV3 cells = assay: Cell viability in SKOV3 cells (CELLTITER-GLO); type: cell-based
# Procedure: The purpose of this assay is to evaluate the inhibition of the production of kynurenine, N-formyl-kynurenine and the depletion of tryptophan in IDO1 expressing cancer cells and assess whether compounds are overtly toxic to these cells. Exemplary compounds are tested for the inhibition of IDO1 activity in SKOV3 (ATCC, Cat # HTB-77), an ovarian cancer cell line that intrinsically expresses IDO1. Due to IDO1 expression, SKOV3 cells degrade tryptophan with the concomitant production of kynurenine and compounds are tested for their ability to inhibit the production of kynurenine, N-formyl-kynurenine and the depletion of tryptophan. Optionally, overt toxicity of compounds can be assessed by monitoring cell viability.
# Plate SKOV3 cells, an IDO1-expressing ovarian cancer cell line, at 20,000 cells per well in 100 μL of McCoys 5A media (Gibco, Cat #16600-082) supplemented with non-essential amino acids (Gibco, Cat #11140-050), 1 mM sodium pyruvate (Gibco, Cat #11360-070), and 10% fetal bovine serum, complete media, in a 96 well tissue culture plate (BD Biosciences). Then, incubate cells for 16 hours in a 37° C. incubator with 5% CO2. […] Optionally, return original plate(s) to the incubator for an additional 24 hours and measure the viability of cells by adding an equal volume of CELLTITER-GLO® (Promega) and measure luminescence in an PERKIN ELMER® EnVision plate reader.
# [1] = 10 mg/kg twice daily oral gavage
# [2] = 50 mg/kg twice daily oral gavage
# [3] = 100 mg/kg twice daily oral gavage
# T1 sequence (P14902 whole entry): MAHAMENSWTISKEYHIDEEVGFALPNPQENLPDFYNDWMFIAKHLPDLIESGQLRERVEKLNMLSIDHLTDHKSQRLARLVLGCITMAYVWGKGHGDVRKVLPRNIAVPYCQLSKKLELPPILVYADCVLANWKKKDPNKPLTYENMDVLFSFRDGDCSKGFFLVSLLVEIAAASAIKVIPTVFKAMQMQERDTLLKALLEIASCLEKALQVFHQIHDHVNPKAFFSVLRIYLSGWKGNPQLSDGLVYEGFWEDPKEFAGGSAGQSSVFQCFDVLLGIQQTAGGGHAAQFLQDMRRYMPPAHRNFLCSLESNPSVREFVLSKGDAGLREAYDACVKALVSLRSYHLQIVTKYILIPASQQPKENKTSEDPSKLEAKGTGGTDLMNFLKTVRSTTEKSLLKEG
Compound,changes in tumor volume (% T/C) (Colon26 tumors; [1]) [%],reduction in body weight compared to baseline (Colon26 tumors; [1]) [%],changes in tumor volume (% T/C) (Colon26 tumors; [2]) [%],reduction in body weight compared to baseline (Colon26 tumors; [2]) [%],changes in tumor volume (% T/C) (Colon26 tumors; [3]) [%],reduction in body weight compared to baseline (Colon26 tumors; [3]) [%],"tolerability (body weight changes) (Colon26 tumors; 10, 50 and 100 mg/kg twice daily for 21 days, compared to vehicle-treated mice)",inhibition at 5 mg/kg (IDO1; 5 mg/kg single oral dose) [%],inhibition at 25 mg/kg (IDO1; 25 mg/kg single oral dose) [%],inhibition at 75 mg/kg (IDO1; 75 mg/kg single oral dose) [%],"% T/C (L55 tumors; 75 mg/kg twice daily oral for 21 days, presence of hPBMCs, day 41, vs vehicle control lacking hPBMCs) [%]","tumor growth inhibition (L55 tumors; 75 mg/kg twice daily oral, absence of hPBMCs, compared to vehicle alone without PBMCs)",tolerability (body weight) (L55 tumors; Example 1A 75 mg/kg twice daily),concentration up to which cell proliferation is not inhibited (SKOV3 cells) [µM],"change in tumor volume (% T/C) (L55 tumors; 10 mg/kg intraperitoneal once a week for 4 weeks, hPBMCs, day 37, vs vehicle alone lacking PBMCs) [%]",tolerability (body weight) (L55 tumors; LY3300054 10 mg/kg once a week)
"C[C@@H](NC(=O)c1ccc(F)cc1)c1ccc2c(c1)CCN2C(=O)C1CCOCC1 (single isomer, unassigned) [Example 1A]",17.5,2.5,31.2,8,62.6,2.5,no significant tolerability issues,37,59,79,47.6,did not result in significant tumor growth inhibition,No significant tolerability issues,≥ 10,,
"LY3300054: an antibody that binds human PD-L1, light and heavy chains defined by SEQ ID NOs",,,,,,,,,,,,,,,75.7,No significant tolerability issues
